From US4211693A, “Peptides with para-substituted phenylalanine” (The Salk Institute for Biological Studies, priority 1978, dated 1980)
Like-named read-outs stand apart in the source and are kept apart here. Where a SMILES comes first, the peptide text is derived from it. Bridges are numbered along the chain shown (N, C = ends). [ ]: non-standard residue; d: D form. Phe(4-Cl) = N[C@@H](Cc1ccc(Cl)cc1)C(=O)O

Columns and labels:
[1] = test system: secretion of glucagon; assay type: in vivo, Male Sprague-Dawley-CD rats
Experimental: (§1) In vivo Bioassay: Male Sprague-Dawley-CD rats weighing 180-200 g housed in temperature and humidity controlled quarters with 14 h light and 10 h dark (light 0700-[…]) were used in all experiments. Animals were fed a standard ration and tap water ad libitum. Experiments were carried out at least 5 days after arrival of rats from the supplier between the hours 1400 and 1600. After ether anesthesia, peptides or saline were administered in a volume of 0.2 ml via the external jugular vein. Animals remained anesthetized until the time of blood collection from the portal vein. Blood collection was performed at various times after administration of the peptide or saline. The blood samples were placed into chilled tubes containing 10 mg EDTA and 50 μl of 2 M Benzamidine per ml of blood.
(§2) All experiments were carried on in a randomized block design. Following analysis of variance difference between treatmments were determined by the multiple range tests of Dunnett and Duncan. Potency values were calculated from four or six point bioassays.

[2] = test system: secretion of insulin; assay type: in vivo, Male Sprague-Dawley-CD rats
Experimental: as §1, §2

[3] = test system: secretion of growth hormone
Experimental: GH determinations were performed on tissue culture media utilizing the following reagents: NIAMDD rat GH standard (GH-RP-1), NIAMDD monkey anti-rat GH (GH-Serum-3), and highly purified rat GH for iodination.

[4] = somatostatin = 100, peptide via external jugular vein, blood from portal vein, four or six point bioassays

SMILES	Relative potency to inhibit the secretion of GLUCAGON ([1]; rat, in vivo)	Relative potency to inhibit the secretion of INSULIN ([2]; rat, in vivo)	Relative potency to inhibit the secretion of GLUCAGON [1, 4]	Relative potency to inhibit the secretion of INSULIN [2, 4]	Relative potency to inhibit the secretion of GH (growth hormone) ([3]; somatostatin = 100, GH in tissue culture media, four or six point bioassays)	Relative potency to inhibit the secretion of GH (growth hormone) [3]
C[C@@H](O)[C@@H]1NC(=O)[C@H](CCCCN)NC(=O)[C@@H](Cc2c[nH]c3ccccc23)NC(=O)[C@H](Cc2ccccc2)NC(=O)[C@H](Cc2ccc(Cl)cc2)NC(=O)[C@@H](N)CSSC[C@@H](C(=O)O)NC(=O)[C@H](Cc2ccc(Cl)cc2)NC1=O [Des--AA^1,2,4,5,12,13 --[P Cl Phe^6,11]--D-Trp^8 --SS] (H-C[Phe(4-Cl)]F[dW]KT[Phe(4-Cl)]C-OH; disulfide 1-8)	> 1	27				
C[C@H](N)C(=O)NCC(=O)N[C@H]1CSSC[C@@H](C(=O)O)NC(=O)[C@@H](CO)NC(=O)[C@H]([C@@H](C)O)NC(=O)[C@H](Cc2ccc(Cl)cc2)NC(=O)[C@H]([C@@H](C)O)NC(=O)[C@H](CCCCN)NC(=O)[C@@H](Cc2c[nH]c3ccccc23)NC(=O)[C@H](Cc2ccc(Cl)cc2)NC(=O)[C@H](Cc2ccc(Cl)cc2)NC(=O)[C@H](CCCCN)NC1=O [Des--Asn^5 --[P Cl Phe^6,7,11]--D-Trp^8 --D--Ser^13 --SS] (H-AGCK[Phe(4-Cl)][Phe(4-Cl)][dW]KT[Phe(4-Cl)]T[dS]C-OH; disulfide 3-13)	> 1	127				
C[C@H](N)C(=O)NCC(=O)N[C@H]1CSSC[C@@H](C(=O)O)NC(=O)[C@H](CO)NC(=O)[C@H]([C@@H](C)O)NC(=O)[C@H](Cc2ccccc2)NC(=O)[C@H]([C@@H](C)O)NC(=O)[C@H](CCCCN)NC(=O)[C@H](Cc2c[nH]c3ccccc23)NC(=O)[C@H](Cc2ccccc2)NC(=O)[C@H](Cc2ccccc2)NC(=O)[C@H](CC(N)=O)NC(=O)[C@H](CCCCN)NC1=O [Somatostatin (SS), Somatostatin, reference compound]			100	100	100	
C[C@H](N)C(=O)NCC(=O)N[C@H]1CSSC[C@@H](C(=O)O)NC(=O)[C@H](CO)NC(=O)[C@H]([C@@H](C)O)NC(=O)[C@H](Cc2ccc(Cl)cc2)NC(=O)[C@H]([C@@H](C)O)NC(=O)[C@H](CCCCN)NC(=O)[C@H](Cc2c[nH]c3ccccc23)NC(=O)[C@H](Cc2ccc(Cl)cc2)NC(=O)[C@H](Cc2ccc(Cl)cc2)NC(=O)[C@H](CC(N)=O)NC(=O)[C@H](CCCCN)NC1=O [[P Cl Phe^6,7,11]--SS]	900	800				78
C[C@H](N)C(=O)NCC(=O)N[C@H]1CSSC[C@@H](C(=O)O)NC(=O)[C@H](CO)NC(=O)[C@H]([C@@H](C)O)NC(=O)[C@H](Cc2ccccc2)NC(=O)[C@H]([C@@H](C)O)NC(=O)[C@H](CCCCN)NC(=O)[C@H](Cc2c[nH]c3ccccc23)NC(=O)[C@H](Cc2ccccc2)NC(=O)[C@H](Cc2ccc(Cl)cc2)NC(=O)[C@H](CC(N)=O)NC(=O)[C@H](CCCCN)NC1=O [[P Cl Phe^6]--SS]	100	100				
C[C@H](N)C(=O)NCC(=O)N[C@H]1CSSC[C@@H](C(=O)O)NC(=O)[C@H](CO)NC(=O)[C@H]([C@@H](C)O)NC(=O)[C@H](Cc2ccccc2)NC(=O)[C@H]([C@@H](C)O)NC(=O)[C@H](CCCCN)NC(=O)[C@@H](Cc2c[nH]c3ccccc23)NC(=O)[C@H](Cc2ccccc2)NC(=O)[C@H](Cc2ccc(I)cc2)NC(=O)[C@H](CC(N)=O)NC(=O)[C@H](CCCCN)NC1=O [[P I Phe^6]--D-Trp^8 --SS]	100	100				
C[C@H](N)C(=O)NCC(=O)N[C@H]1CSSC[C@@H](C(=O)O)NC(=O)[C@H](CO)NC(=O)[C@H]([C@@H](C)O)NC(=O)[C@H](Cc2ccccc2)NC(=O)[C@H]([C@@H](C)O)NC(=O)[C@H](CCCCN)NC(=O)[C@@H](Cc2c[nH]c3ccccc23)NC(=O)[C@H](Cc2ccc(I)cc2)NC(=O)[C@H](Cc2ccccc2)NC(=O)[C@H](CC(N)=O)NC(=O)[C@H](CCCCN)NC1=O [[P I Phe^7]--D-Trp^8 --SS]	100	100				
C[C@H](N)C(=O)NCC(=O)N[C@H]1CSSC[C@@H](C(=O)O)NC(=O)[C@H](CO)NC(=O)[C@H]([C@@H](C)O)NC(=O)[C@H](Cc2ccc(I)cc2)NC(=O)[C@H]([C@@H](C)O)NC(=O)[C@H](CCCCN)NC(=O)[C@@H](Cc2c[nH]c3ccccc23)NC(=O)[C@H](Cc2ccccc2)NC(=O)[C@H](Cc2ccccc2)NC(=O)[C@H](CC(N)=O)NC(=O)[C@H](CCCCN)NC1=O [[P I Phe^11]--D-Trp^8 --SS]	800	33				
C[C@H](N)C(=O)NCC(=O)N[C@H]1CSSC[C@@H](C(=O)O)NC(=O)[C@H](CO)NC(=O)[C@H]([C@@H](C)O)NC(=O)[C@H](Cc2ccc(I)cc2)NC(=O)[C@H]([C@@H](C)O)NC(=O)[C@H](CCCCN)NC(=O)[C@H](Cc2c[nH]c3ccccc23)NC(=O)[C@H](Cc2ccccc2)NC(=O)[C@H](Cc2ccccc2)NC(=O)[C@H](CC(N)=O)NC(=O)[C@H](CCCCN)NC1=O [[P I Phe^11]--SS]	900	950				100
